Drawing on patent US10710994B2, “Oxadiazole transient receptor potential channel inhibitors” (Genentech, Inc., priority 2018, dated 2020), this text covers IC50 for 24 compounds.

The target of this test is human TRPA1 channel (Homo sapiens (Human), UniProt O75762). As to the kind of experiment: hTRPA1 CHO Ca2+ FLIPR Tetra assay: block of cinnamaldehyde induced calcium influx. It is filed as cell-based. The note with it: CHO cells expressing TRPA1, Hill coefficient fixed to 1.5. Here is the method:
CHO cells expressing TRPA1 were plated into 384-well plates, incubated overnight at 37° C., and loaded with BD calcium indicator dye for 1 hr at 37° C. followed by 15 minutes at room temperature. The assay buffer was Hank's Balanced Salt Solution (HBSS) containing 20 mM HEPES (pH readjusted to 7.4) along with 0.02% BSA.
Following dye load and plate cool down, compounds were added to the cells using FLIPR Tetra. Plates were then incubated with compounds for 10 minutes or 90 minutes at room temperature prior to adding agonist. Following this incubation, about an EC80 concentration of cinnamaldehyde […] was added to active the channels and block of cinnamaldehyde induced calcium influx was measured.
Fixing the Hill coefficient will generally reduce variability of the IC50 determination. The IC50 results were individually examined to make sure the MIN and MAX points were set correctly prior to validation of the results.

Where [1] appears, read: hTRPA1 IC50 10 min, 10 minutes incubation with compound before cinnamaldehyde (about EC80).
The mark [2] stands for this setting: hTRPA1 IC50 90 min, 90 minutes incubation with compound before cinnamaldehyde (about EC80).

human TRPA1 channel, sequence (O75762 whole entry): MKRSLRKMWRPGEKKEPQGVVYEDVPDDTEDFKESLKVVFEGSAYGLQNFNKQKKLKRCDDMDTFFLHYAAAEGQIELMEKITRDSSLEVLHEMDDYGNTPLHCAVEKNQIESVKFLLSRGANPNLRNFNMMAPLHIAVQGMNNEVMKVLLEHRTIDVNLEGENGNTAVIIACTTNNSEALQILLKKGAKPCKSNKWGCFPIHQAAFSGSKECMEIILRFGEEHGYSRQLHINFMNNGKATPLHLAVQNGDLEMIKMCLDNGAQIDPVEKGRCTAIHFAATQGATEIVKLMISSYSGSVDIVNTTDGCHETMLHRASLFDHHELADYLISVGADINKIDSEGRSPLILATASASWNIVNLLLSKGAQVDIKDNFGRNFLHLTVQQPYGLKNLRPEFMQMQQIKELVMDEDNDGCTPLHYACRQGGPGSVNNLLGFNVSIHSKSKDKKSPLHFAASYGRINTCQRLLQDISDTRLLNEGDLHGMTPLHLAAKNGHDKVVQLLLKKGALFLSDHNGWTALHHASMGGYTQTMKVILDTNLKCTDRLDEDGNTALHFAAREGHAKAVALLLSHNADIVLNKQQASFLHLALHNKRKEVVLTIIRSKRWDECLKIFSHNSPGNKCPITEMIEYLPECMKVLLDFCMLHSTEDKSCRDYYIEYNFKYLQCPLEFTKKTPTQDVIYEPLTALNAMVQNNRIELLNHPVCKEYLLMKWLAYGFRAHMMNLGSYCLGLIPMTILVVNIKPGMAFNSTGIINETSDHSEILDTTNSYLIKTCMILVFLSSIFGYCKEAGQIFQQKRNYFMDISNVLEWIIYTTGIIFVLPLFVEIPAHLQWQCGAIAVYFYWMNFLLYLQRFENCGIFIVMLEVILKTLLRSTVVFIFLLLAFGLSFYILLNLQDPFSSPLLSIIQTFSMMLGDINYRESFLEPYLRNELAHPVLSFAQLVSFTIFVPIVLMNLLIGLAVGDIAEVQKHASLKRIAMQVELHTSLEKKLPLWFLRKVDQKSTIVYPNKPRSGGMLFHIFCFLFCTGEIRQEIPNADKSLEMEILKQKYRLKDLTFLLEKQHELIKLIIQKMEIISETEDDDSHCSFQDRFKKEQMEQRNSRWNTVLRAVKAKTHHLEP

A word on the IC50: it is the point on the concentration scale where inhibition reaches its midpoint. Consider `Cc1cnn2ncn(Cc3nc([C@@H]4CO[C@@H](c5ccc(Cl)cn5)C4)no3)c(=O)c12` (racemic) [Example 72, Racemic 3-((3-((3R,5R)-5-(5-chloropyridin-2-yl)tetrahydrofuran-3-yl)-1,2,4-oxadiazol-5-yl)methyl)-5-methylpyrazolo[5,1-f] [1,2,4]triazin-4(3H)-one], for which the IC50 turned out to be 219 nM under setting [1] and 150 nM under setting [2].

Consider `Cc1nc(Br)n2ncn(Cc3nc([C@@H]4CO[C@@H](c5ccc(F)cc5)C4)no3)c(=O)c12` (racemic) [Example 90, 7-bromo-5-methyl-3-[[3-[rac-(3R,5R)-5-(4-fluorophenyl)tetrahydro-furan-3-yl]-1,2,4-oxadiazol-5-yl]methyl] imidazo[5,1-f][1,2,4] triazin-4-one], for which, under setting [2], the IC50 stood at 33 nM.

For `Cc1nc(N2CCNCC2)n2ncn(Cc3nc([C@@H]4CO[C@@H](c5ccc(Cl)cc5)C4)no3)c(=O)c12` (racemic) [Example 91, formic acid; 5-methyl-7-piperazin-1-yl-3-[[3-[rac-(3R,5R)-5-(4-chlorophenyl)tetrahydro-furan-3-yl]-1,2,4-oxadiazol-5-yl]methyl] imidazo[5,1-f][1,2,4]triazin-4-one], under setting [2], the IC50 amounted to 330 nM.

Take `Cc1nc(N2CCN(C)CC2)n2ncn(Cc3nc([C@@H]4CO[C@@H](c5ccc(Cl)cc5)C4)no3)c(=O)c12` (racemic) [Example 92, 5-methyl-7-(4-methylpiperazin-1-yl)-3-[[3-[rac-(3R,5R)-5-(4-chlorophenyl)tetrahydro-furan-3-yl]-1,2,4-oxadiazol-5-yl]methyl]imidazo[5,1-f][1,2,4]triazin-4-one]: the IC50 under setting [2] is 170 nM.

As for `Cc1nc(Cl)n2ncn(Cc3nc([C@@H]4CO[C@@H](c5ccc(Cl)cc5)C4)no3)c(=O)c12` (racemic) [Example 93, 7-chloro-5-methyl-3-[[3-[rac-(3R,5R)-5-(4-chlorophenyl)tetrahydro-furan-3-yl]-1,2,4-oxadiazol-5-yl]methyl] imidazo[5,1-f][1,2,4] triazin-4-one], under setting [2], the IC50 is 13 nM.

On to `O=c1c2cccc(=O)n2ccn1Cc1nc([C@@H]2CO[C@@H](c3ccc(F)cc3)C2)no1` (racemic) [Example 94, 2-[[3-[rac-(3R,5R)-5-(4-fluorophenyl)tetrahydro-furan-3-yl]-1,2,4-oxadiazol-5-yl]methyl]pyrido[1,2-a] pyrazine-1,6-dione], for which the IC50 under setting [2] turned out to be 12 nM.

Turning to `O=c1c2c(Cl)ccnc2ncn1Cc1nc([C@@H]2CO[C@@H](c3ccc(F)cc3)C2)no1` (racemic) [Example 95, 5-chloro-3-[[3-[rac-(3R,5R)-5-(4-fluorophenyl)tetrahydrofuran-3-yl]-1,2,4-oxadiazol-5-yl]methyl] pyrido[2,3-d]pyrimidin-4-one], the IC50 under setting [2] came out at 15 nM.

In the case of `Cc1nn(C)c2ncn(Cc3nc([C@@H]4CO[C@@H](c5ccc(Cl)cc5)C4)no3)c(=O)c12` (racemic) [Example 96, 1,3-dimethyl-5-[[3-[rac-(3R,5R)-5-(4-chlorophenyl)tetrahydro-furan-3-yl]-1,2,4-oxadiazol-5-yl]methyl] pyrazolo[3,4-d]pyrimidin-4-one], the IC50 under setting [2] turned out to be 33 nM.

`Cc1nc(C)n2ncn(Cc3nc([C@@H]4CO[C@@H](c5ccc(Cl)cc5)C4)no3)c(=O)c12` (racemic) [Example 97, 5,7-dimethyl-3-[[3-[rac-(3R,5R)-5-(4-chlorophenyl)tetrahydro-furan-3-yl]-1,2,4-oxadiazol-5-yl]methyl] imidazo[5,1-f][1,2,4] triazin-4-one]: the IC50 under setting [2] was determined as 45 nM.

With `O=c1c2cccc(=O)n2ccn1Cc1nc([C@@H]2CO[C@@H](c3ccc(Cl)cc3)C2)no1` (racemic) [Example 98, 2-[[3-[rac-(3R,5R)-5-(4-chlorophenyl)tetrahydro-furan-3-yl]-1,2,4-oxadiazol-5-yl]methyl] pyrido[1,2-a]pyrazine-1,6-dione], the IC50 by setting is: under setting [1], 6.4 nM; under setting [2], 4 nM.

For the compound `O=c1ccn2c(=O)n(Cc3nc([C@@H]4CO[C@@H](c5ccc(Cl)cc5)C4)no3)ccc2n1` (racemic) [Example 99, 7-[[3-[rac-(3R,5R)-5-(4-chlorophenyl)tetrahydro-furan-3-yl]-1,2,4-oxadiazol-5-yl]methyl]pyrimido[1,6-a]pyrimidine-2,6-dione], the IC50 was 15.4 nM under setting [1] and 7.2 nM under setting [2].

For the compound `Cc1cccc2nn(Cc3nc([C@@H]4CO[C@@H](c5ccc(Cl)cc5)C4)no3)c(=O)n12` (racemic) [Example 100, 5-methyl-2-[[3-[rac-(3R,5R)-5-(4-chlorophenyl)tetrahydro-furan-3-yl]-1,2,4-oxadiazol-5-yl]methyl]-[1,2,4]triazolo[4,3-a] pyridin-3-one], the IC50 runs as follows: under setting [1], 153 nM; under setting [2], 140 nM.

With `Cc1nc(N2CCOCC2)n2ncn(Cc3nc([C@@H]4CO[C@@H](c5ccc(Cl)cc5)C4)no3)c(=O)c12` (racemic) [Example 101, 5-methyl-7-morpholino-3-[[3-[rac-(3R,5R)-5-(4-chlorophenyl)tetrahydro-furan-3-yl]-1,2,4-oxadiazol-5-yl]methyl]imidazo[5,1-f][1,2,4]triazin-4-one], the IC50 runs as follows: under setting [1], 123 nM; under setting [2], 96 nM.

`Cn1cncc1C(=O)NCc1nc([C@H]2CO[C@H](c3ccc(Cl)cc3)C2)no1` (racemic) [Example 102, 3-methyl-N-[[3-[rac-(3S,5S)-5-(4-chlorophenyl)tetrahydro-furan-3-yl]-1,2,4-oxadiazol-5-yl]methyl]imidazole-4-carboxamide]: the IC50 is 38.9 nM under setting [1] and 23 nM under setting [2].

Take `Cc1nc(N(C)C)n2ncn(Cc3nc([C@@H]4CO[C@@H](c5ccc(Cl)cc5)C4)no3)c(=O)c12` (racemic) [Example 105, 7-(dimethylamino)-5-methyl-3-[[3-[rac-(3R,5R)-5-(4-chlorophenyl)tetrahydro-furan-3-yl]-1,2,4-oxadiazol-5-yl]methyl]imidazo[5,1-f][1,2,4]triazin-4-one]: the IC50 by setting is: under setting [1], 42 nM; under setting [2], 59 nM.

Take `Cn1nnc2ccn(Cc3nc([C@@H]4CO[C@@H](c5ccc(F)cc5)C4)no3)c(=O)c21` (racemic) [Example 106, 3-methyl-5-[[3-[rac-(3R,5R)-5-(4-fluorophenyl)tetrahydro-furan-3-yl]-1,2,4-oxadiazol-5-yl]methyl] triazolo[4,5-c]pyridin-4-one]: the IC50 worked out at 6.9 nM under setting [1] and 5.6 nM under setting [2].

For `Cc1nc(Br)n2ncn(Cc3nc([C@@H]4CO[C@@H](c5ccc(Cl)cc5)C4)no3)c(=O)c12` (racemic) [Example 107, 7-bromo-5-methyl-3-[[3-[rac-(3R,5R)-5-(4-chlorophenyl)tetrahydro-furan-3-yl]-1,2,4-oxadiazol-5-yl]methyl] imidazo[5,1-f][1,2,4] triazin-4-one], the IC50 stood at 0.8 nM under setting [1] and 0.3 nM under setting [2].

Take `Nc1nccc2c(=O)n(Cc3nc([C@@H]4CO[C@@H](c5ccc(Cl)cc5)C4)no3)cnc12` (racemic) [Example 108, 8-amino-3-[[3-[rac-(3R,5R)-5-(4-chlorophenyl)tetrahydro-furan-3-yl]-1,2,4-oxadiazol-5-yl]methyl]pyrido[3,4-d] pyrimidin-4-one]: the IC50 is 76.9 nM under setting [1] and 57 nM under setting [2].

For the compound `Cc1nc2nc(N)n(C)c2c(=O)n1Cc1nc([C@@H]2CO[C@@H](c3ccc(Cl)cc3)C2)no1` (racemic) [Example 113, 8-amino-2,7-dimethyl-1-[[3-[rac-(3R,5R)-5-(4-chlorophenyl)tetrahydro-furan-3-yl]-1,2,4-oxadiazol-5-yl]methyl] purin-6-one], the IC50 turned out to be 123 nM under setting [1] and 14 nM under setting [2].

`Cc1nc2nc(N)n(Cc3nc([C@@H]4CO[C@@H](c5ccc(Cl)cc5)C4)no3)c(=O)c2n1C` (racemic) [Example 152, 2-amino-7,8-dimethyl-1-[[3-[rac-(3R,5R)-5-(4-chlorophenyl)tetrahydro-furan-3-yl]-1,2,4-oxadiazol-5-yl]methyl]purin-6-one]: the IC50 is, setting by setting: under setting [1], 43.1 nM; under setting [2], 6.2 nM.

Regarding `Cn1c(=O)oc2ncn(Cc3nc([C@@H]4CO[C@@H](c5ccc(Cl)cc5)C4)no3)c(=O)c21` (racemic) [Example 153, 1-methyl-6-[[3-[rac-(3R,5R)-5-(4-chlorophenyl)tetrahydro-furan-3-yl]-1,2,4-oxadiazol-5-yl]methyl] oxazolo[5,4-d] pyrimidine-2,7-dione], the IC50 came to 6.35 nM under setting [1] and 1.8 nM under setting [2].

For `Nc1nc2ncsc2c(=O)n1Cc1nc([C@@H]2CO[C@@H](c3ccc(F)cc3)C2)no1` (racemic) [Example 154, 5-amino-6-[[3-[rac-(3R,5R)-5-(4-fluorophenyl)tetrahydro-furan-3-yl]-1,2,4-oxadiazol-5-yl]methyl]thiazolo[4,5-d]pyrimidin-7-one], the IC50 under setting [2] amounted to 2.3 nM.

`Cn1nnc2nc(N)n(Cc3nc([C@@H]4CO[C@@H](c5ccc(Cl)cc5)C4)no3)c(=O)c21` (racemic) [Example 156, 5-amino-1-methyl-6-[[3-[rac-(3R,5R)-5-(4-chlorophenyl)tetrahydro-furan-3-yl]-1,2,4-oxadiazol-5-yl]methyl]triazolo[4,5-d]pyrimidin-7-one]: the IC50 under setting [1] came to 16.1 nM and the IC50 under setting [2] is 2.1 nM.

In the case of `Cn1cnc2nc(N)n(Cc3nc([C@@H]4CO[C@@H](c5ccc(F)cc5)C4)no3)c2c1=O` (racemic) [Example 157, 8-amino-1-methyl-7-[[3-[rac-(3R,5R)-5-(4-fluorophenyl)tetrahydro-furan-3-yl]-1,2,4-oxadiazol-5-yl]methyl]purin-6-one], the IC50 is, setting by setting: under setting [1], 470 nM; under setting [2], 87 nM.
